Patent US6583299B1, “α-amino-β-sulfonyl hydroxamic acid compounds” (priority 1999, dated 2003)
pIC50: −log10 of the molar value. Where “and” joins values, the source holds several entries; their conditions need not be identical. Equal values may be shown once. Read-outs that look alike come from different tables or passages of the source.

Assays:
Assay in all cases: In vitro metalloprotease inhibition, fluorogenic MCA peptide substrate
Type in all cases: biochemical
MMP-2 = molecular target: T1, MMP-2 (Homo sapiens, UniProt P08253); conditions: room temperature, pH 7.5
T1 sequence (P08253 110-660): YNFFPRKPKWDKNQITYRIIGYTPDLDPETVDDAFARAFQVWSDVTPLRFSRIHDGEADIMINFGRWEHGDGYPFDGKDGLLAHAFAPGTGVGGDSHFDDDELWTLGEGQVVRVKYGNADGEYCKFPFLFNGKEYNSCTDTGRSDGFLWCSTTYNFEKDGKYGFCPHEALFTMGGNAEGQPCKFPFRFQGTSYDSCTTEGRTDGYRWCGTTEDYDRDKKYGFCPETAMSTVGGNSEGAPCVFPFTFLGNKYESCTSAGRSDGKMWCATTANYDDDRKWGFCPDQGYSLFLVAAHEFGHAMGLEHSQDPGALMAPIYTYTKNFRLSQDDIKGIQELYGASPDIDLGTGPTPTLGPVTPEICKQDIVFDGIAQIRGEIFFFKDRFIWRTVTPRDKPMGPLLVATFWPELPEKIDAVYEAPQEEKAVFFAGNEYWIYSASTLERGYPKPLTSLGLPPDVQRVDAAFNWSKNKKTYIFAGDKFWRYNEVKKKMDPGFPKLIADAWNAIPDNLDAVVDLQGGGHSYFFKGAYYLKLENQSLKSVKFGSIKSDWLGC

MMP-13 = molecular target: T2, MMP-13 (Homo sapiens, UniProt P45452); conditions: APMA-activated, room temperature, pH 7.5
T2 construct: made in house; host or cells: baculovirus / insect cells

MMP-1 = molecular target: T3, MMP-1 (Homo sapiens, UniProt P03956); conditions: recombinant human enzyme, APMA-activated, room temperature, pH 7.5
T3 construct: host or cells: transfected HT-1080 cells
T3 sequence (P03956 100-469): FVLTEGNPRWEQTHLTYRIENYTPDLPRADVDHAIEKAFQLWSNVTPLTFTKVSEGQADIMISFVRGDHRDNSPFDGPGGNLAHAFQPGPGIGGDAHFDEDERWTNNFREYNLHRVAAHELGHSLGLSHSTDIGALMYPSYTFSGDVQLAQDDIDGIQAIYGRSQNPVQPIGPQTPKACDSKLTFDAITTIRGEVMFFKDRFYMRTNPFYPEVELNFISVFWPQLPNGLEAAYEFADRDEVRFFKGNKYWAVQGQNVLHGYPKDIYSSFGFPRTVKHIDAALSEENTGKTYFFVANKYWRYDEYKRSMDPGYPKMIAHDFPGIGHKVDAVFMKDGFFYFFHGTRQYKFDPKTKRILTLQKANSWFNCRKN

[1] = recombinant human enzyme, read-out: MMP-13 IC50
[2] = MMP-13 IC50, recombinant human enzyme

SMILES	pIC50 (MMP-2)	pIC50 (MMP-13; [1])	pIC50 (MMP-1)	pIC50 (MMP-13; [2])
Cc1ccc(S(=O)(=O)NC(CS(=O)(=O)c2ccc(Oc3ccccc3)cc2)C(=O)NO)cc1 (centres unmarked) [Example 12c]	> 10.00	9.22	6.40	–
COc1ccc(CC(=O)NC(CS(=O)(=O)c2ccc(Sc3ccccc3)cc2)C(=O)NO)c(OC)c1 (centres unmarked) [Example 31]	9.10	9.40	5.52	–
CC(C)(C)OC(=O)N[C@@H](CS(=O)(=O)c1ccc(Oc2ccccc2)cc1)C(=O)NO [Example 33]	9.70	9.52	6.30	–
O=C(NC(CS(=O)(=O)c1ccc(Sc2ccccc2)cc1)C(=O)NO)c1ccccc1-c1ccccc1 (centres unmarked) [Example 35]	–	9.70	5.52	–
O=C(NC(CS(=O)(=O)c1ccc(Sc2ccccc2)cc1)C(=O)NO)c1cccc2ccccc12 (centres unmarked) [Example 36]	–	8.60	< 5.00	–
COc1cccc(OC)c1C(=O)N[C@@H](CS(=O)(=O)c1ccc(Oc2ccccc2)cc1)C(=O)NO [Example 37]	9.60	9.40	6.46	–
CN(C(=O)OC(C)(C)C)[C@H](CS(=O)(=O)c1ccc(Oc2ccccc2)cc1)C(=O)NO [Example 40]	9.52	9.52	5.80	–
CN[C@@H](CS(=O)(=O)c1ccc(Oc2ccccc2)cc1)C(=O)NO [Example 41]	9.52 and 9.30	9.40 and 9.00	6.36 and 6.17	–
CC(=O)N(C)[C@@H](CS(=O)(=O)c1ccc(Oc2ccccc2)cc1)C(=O)NO [Example 43]	9.70	9.70	7.05	–
O=C(N[C@@H](CS(=O)(=O)c1ccc(Oc2ccccc2)cc1)C(=O)NO)c1ccncc1 [Example 44]	9.52	9.10	6.05	–
O=C(N[C@@H](CS(=O)(=O)c1ccc(Oc2ccccc2)cc1)C(=O)NO)c1ccncc1 [Example 46]	9.52	8.96	5.88	–
CN(C(=O)Cc1ccncc1)[C@H](CS(=O)(=O)c1ccc(Oc2ccccc2)cc1)C(=O)NO [Example 47]	9.22	7.34	6.59	–
CN(Cc1ccccc1)[C@H](CS(=O)(=O)c1ccc(Oc2ccccc2)cc1)C(=O)NO [Example 48]	> 10.00	9.70	6.32	–
O=C(N[C@@H](CS(=O)(=O)c1ccc(Oc2ccccc2)cc1)C(=O)NO)c1ccnc2ccccc12 [Example 50]	9.52	9.52	6.50	–
O=C(N[C@@H](CS(=O)(=O)c1ccc(Oc2ccccc2)cc1)C(=O)NO)c1ccnc2ccccc12 [Example 51]	9.52	9.40	6.53	–
CCN(CC)c1ccc(C(=O)N[C@@H](CS(=O)(=O)c2ccc(Oc3ccccc3)cc2)C(=O)NO)cc1 [Example 53]	9.52	8.68	5.09	–
O=C(NO)[C@H](CS(=O)(=O)c1ccc(Oc2ccccc2)cc1)N1CCCCC1 [Example 54]	9.70	9.52	6.46	–
CC(=O)N1CCC(C(=O)NC(CS(=O)(=O)c2ccc(Oc3ccccc3)cc2)C(=O)NO)CC1 (centres unmarked) [Example 59]	9.40	9.10	6.24	–
N[C@H](CNO)CS(=O)(=O)c1ccc(Oc2ccccc2)cc1 [Example 60]	9.52	9.40	6.36	–
CNC(CS(=O)(=O)c1ccc(NC(=O)c2ccccc2)cc1)C(=O)NO (centres unmarked) [Example 64]	9.40	8.09	5.15	–
CC(CS(=O)(=O)c1ccc(Oc2ccccc2)cc1)(NCCc1ccccc1)C(=O)NO (centres unmarked) [Example 67]	–	8.62	5.62	–
NC(CS(=O)(=O)c1ccc(Oc2ccccc2)cc1)(C(=O)NO)c1ccccc1 (centres unmarked) [Example 70]	–	9.40	6.89	–

The remaining lines, values ahead:

pIC50 (MMP-2)	pIC50 (MMP-13; [1])	pIC50 (MMP-1)	pIC50 (MMP-13; [2])	SMILES
8.66	8.23	< 5.00	–	CC(=O)NC(CS(=O)(=O)c1ccc(Sc2ccccc2)cc1)C(=O)NO (centres unmarked) [Example 15b, 2-(Acetylamino)-N-hydroxy-3-[[4-(phenylthio)phenyl]sulfonyl]propanamide]
8.26	7.89	< 5.00	–	O=C(NC(CS(=O)(=O)c1ccc(Sc2ccccc2)cc1)C(=O)NO)c1ccncc1 (centres unmarked) [Example 28]
–	8.15	< 5.00	–	O=C(NC(CS(=O)(=O)c1ccc(Sc2ccccc2)cc1)C(=O)NO)c1cccnc1 (centres unmarked) [Example 29]
9.30	8.54	–	–	CC(=O)N[C@@H](CS(=O)(=O)c1ccc(Sc2ccccc2)cc1)C(=O)NO [Example 30]
–	9.40	5.10	–	O=C(N[C@@H](CS(=O)(=O)c1ccc(Sc2ccccc2)cc1)C(=O)NO)OCc1ccccc1 [Example 32]
–	8.30	< 5.00	–	O=C(NC(CS(=O)(=O)c1ccc(Sc2ccccc2)cc1)C(=O)NO)c1ccccc1 (centres unmarked) [Example 34]
–	–	6.77	9.30	CC(N)(CS(=O)(=O)c1ccc(Oc2ccccc2)cc1)C(=O)NO (centres unmarked) [Example 38]
–	–	6.94 and 6.65	9.52 and 8.96	CC(N)(CS(=O)(=O)c1ccc(Oc2ccccc2)cc1)C(=O)NO (centres unmarked) [Example 39]
–	8.80	5.80	–	CCNC(C)(CS(=O)(=O)c1ccc(Oc2ccccc2)cc1)C(=O)NO (centres unmarked) [Example 55]
–	8.62	5.36	–	CC(N)(CS(=O)(=O)c1ccc(Sc2ccccc2)cc1)C(=O)NO (centres unmarked) [Example 58]
8.96	7.22	< 5.00	–	CC(N)(CS(=O)(=O)c1ccc(NC(=O)c2ccccc2)cc1)C(=O)NO (centres unmarked) [Example 61]
7.62	5.92	7.14	–	CC(C)(C)OC(=O)NC(C)(CS(=O)(=O)c1ccc(NC(=O)c2ccccc2)cc1)C(=O)NO (centres unmarked) [Example 62]
9.00	7.67	5.52	–	CN(C(=O)OC(C)(C)C)C(C)(CS(=O)(=O)c1ccc(NC(=O)c2ccccc2)cc1)C(=O)NO (centres unmarked) [Example 63]
–	9.22	6.15	–	C#CCNC(C)(CS(=O)(=O)c1ccc(Oc2ccccc2)cc1)C(=O)NO (centres unmarked) [Example 69]
